{"source": "ChEMBL document CHEMBL1201862", "about": "“PubChem BioAssay data set” (2004)", "assay_in_all_cases": "DTP human tumour cell line panel, 48 h", "key": {"[1]": {"tested_on": "MCF7"}, "[2]": {"tested_on": "U-251"}, "[3]": {"tested_on": "RPMI-8226"}, "[4]": {"tested_on": "MOLT-4"}, "[5]": {"tested_on": "PC-3"}, "[6]": {"tested_on": "MDA-N"}, "[7]": {"tested_on": "KM12"}, "[8]": {"tested_on": "SNB-75"}, "[9]": {"tested_on": "SK-MEL-2"}, "[10]": {"tested_on": "SNB-19"}, "[11]": {"tested_on": "A498"}, "[12]": {"tested_on": "SW-620"}, "[13]": {"tested_on": "NCI-H226"}, "[14]": {"tested_on": "UACC-257"}, "[15]": {"tested_on": "NCI-H23"}, "[16]": {"tested_on": "A549"}, "[17]": {"tested_on": "LOX IMVI"}, "[18]": {"tested_on": "IGROV-1"}, "[19]": {"tested_on": "SF-268"}, "[20]": {"tested_on": "HT-29"}, "[21]": {"tested_on": "SK-MEL-28"}, "[22]": {"tested_on": "OVCAR-5"}, "[23]": {"tested_on": "OVCAR-3"}, "[24]": {"tested_on": "UO-31"}, "[25]": {"tested_on": "Malme-3M"}, "[26]": {"tested_on": "SF-295"}, "[27]": {"tested_on": "M14"}, "[28]": {"tested_on": "MDA-MB-435"}, "[29]": {"tested_on": "SN12C"}, "[30]": {"tested_on": "SK-OV-3"}, "[31]": {"tested_on": "SK-MEL-5"}, "[32]": {"tested_on": "SR"}, "[33]": {"tested_on": "786-0"}, "[34]": {"tested_on": "K562"}, "[35]": {"tested_on": "HOP-62"}, "[36]": {"tested_on": "TK-10"}, "[37]": {"tested_on": "ACHN"}, "[38]": {"tested_on": "COLO 205"}, "[39]": {"tested_on": "OVCAR-4"}, "[40]": {"tested_on": "OVCAR-8"}, "[41]": {"tested_on": "UACC-62"}, "[42]": {"tested_on": "HCT-116"}, "[43]": {"tested_on": "HCT-15"}, "[44]": {"tested_on": "Hs-578T"}, "[45]": {"tested_on": "EKVX"}, "[46]": {"tested_on": "CCRF-CEM"}, "[47]": {"tested_on": "MDA-MB-231"}, "[48]": {"tested_on": "DU-145"}, "[49]": {"tested_on": "NCI/ADR-RES"}, "[50]": {"tested_on": "SF-539"}, "[51]": {"tested_on": "HL-60"}, "[52]": {"tested_on": "CAKI-1"}, "[53]": {"tested_on": "HOP-92"}, "[54]": {"tested_on": "NCI-H460"}, "[55]": {"tested_on": "RXF 393"}}, "note": "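Grown in 96-well plates, cells were treated for 48 hours with each compound at five concentrations. Insufficient inhibition: endpoint recorded as highest concentration tested. GI50 is the concentration that inhibits growth by half.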 Active and inactive are the calls of the source. No stated cut-off is given here; in the data, active = GI50 up to about 1.1 µM and inactive = higher.", "data": [{"smiles": "COc1ccc2c(C)cc(=O)oc2c1OC", "values": [{"measurement": "GI50", "setting": "[1]", "result": "> 100 µM (inactive)"}, {"measurement": "GI50", "setting": "[2]", "result": "> 100 µM (inactive)"}, {"measurement": "GI50", "setting": "[3]", "result": "> 100 µM (inactive)"}, {"measurement": "GI50", "setting": "[4]", "result": "> 100 µM (inactive)"}, {"measurement": "GI50", "setting": "[5]", "result": "> 100 µM (inactive)"}, {"measurement": "GI50", "setting": "[6]", "result": "> 100 µM (inactive)"}, {"measurement": "GI50", "setting": "[7]", "result": "> 100 µM (inactive)"}, {"measurement": "GI50", "setting": "[8]", "result": "> 100 µM (inactive)"}, {"measurement": "GI50", "setting": "[9]", "result": "> 100 µM (inactive)"}, {"measurement": "GI50", "setting": "[10]", "result": "> 100 µM (inactive)"}, {"measurement": "GI50", "setting": "[11]", "result": "> 100 µM (inactive)"}, {"measurement": "GI50", "setting": "[12]", "result": "> 100 µM (inactive)"}, {"measurement": "GI50", "setting": "[13]", "result": "> 100 µM (inactive)"}, {"measurement": "GI50", "setting": "[14]", "result": "> 100 µM (inactive)"}, {"measurement": "GI50", "setting": "[15]", "result": "> 100 µM (inactive)"}, {"measurement": "GI50", "setting": "[16]", "result": "> 100 µM (inactive)"}, {"measurement": "GI50", "setting": "[17]", "result": "> 100 µM (inactive)"}, {"measurement": "GI50", "setting": "[18]", "result": "> 100 µM (inactive)"}, {"measurement": "GI50", "setting": "[19]", "result": "> 100 µM (inactive)"}, {"measurement": "GI50", "setting": "[20]", "result": "> 100 µM (inactive)"}, {"measurement": "GI50", "setting": "[21]", "result": "> 100 µM (inactive)"}, {"measurement": "GI50", "setting": "[22]", "result": "> 100 µM (inactive)"}, {"measurement": "GI50", "setting": "[23]", "result": "> 100 µM (inactive)"}, {"measurement": "GI50", "setting": "[24]", "result": "> 100 µM (inactive)"}, {"measurement": "GI50", "setting": "[25]", "result": "> 100 µM (inactive)"}, {"measurement": "GI50", "setting": "[26]", "result": "> 100 µM (inactive)"}, {"measurement": "GI50", "setting": "[27]", "result": "> 100 µM (inactive)"}, {"measurement": "GI50", "setting": "[28]", "result": "> 100 µM (inactive)"}, {"measurement": "GI50", "setting": "[29]", "result": "> 100 µM (inactive)"}, {"measurement": "GI50", "setting": "[30]", "result": "> 100 µM (inactive)"}, {"measurement": "GI50", "setting": "[31]", "result": "> 100 µM (inactive)"}, {"measurement": "GI50", "setting": "[32]", "result": "> 100 µM (inactive)"}, {"measurement": "GI50", "setting": "[33]", "result": "> 100 µM (inactive)"}, {"measurement": "GI50", "setting": "[34]", "result": "> 100 µM (inactive)"}, {"measurement": "GI50", "setting": "[35]", "result": "> 100 µM (inactive)"}, {"measurement": "GI50", "setting": "[36]", "result": "> 100 µM (inactive)"}, {"measurement": "GI50", "setting": "[37]", "result": "> 100 µM (inactive)"}, {"measurement": "GI50", "setting": "[38]", "result": "> 100 µM (inactive)"}, {"measurement": "GI50", "setting": "[39]", "result": "> 100 µM (inactive)"}, {"measurement": "GI50", "setting": "[40]", "result": "> 100 µM (inactive)"}, {"measurement": "GI50", "setting": "[41]", "result": "> 100 µM (inactive)"}, {"measurement": "GI50", "setting": "[42]", "result": "> 100 µM (inactive)"}, {"measurement": "GI50", "setting": "[43]", "result": "> 100", "unit": "µM"}, {"measurement": "GI50", "setting": "[44]", "result": "> 100 µM (inactive)"}, {"measurement": "GI50", "setting": "[45]", "result": "> 100 µM (inactive)"}, {"measurement": "GI50", "setting": "[46]", "result": "> 100 µM (inactive)"}, {"measurement": "GI50", "setting": "[47]", "result": "> 100 µM (inactive)"}, {"measurement": "GI50", "setting": "[48]", "result": "> 100 µM (inactive)"}, {"measurement": "GI50", "setting": "[49]", "result": "> 100 µM (inactive)"}]}, {"smiles": "CCCCOCn1c(=O)[nH]c(=O)c2ccccc21", "values": [{"measurement": "GI50", "setting": "[1]", "result": "68.9 µM (inactive)"}, {"measurement": "GI50", "setting": "[2]", "result": "> 100 µM (inactive)"}, {"measurement": "GI50", "setting": "[4]", "result": "> 100 µM (inactive)"}, {"measurement": "GI50", "setting": "[50]", "result": "> 100 µM (inactive)"}, {"measurement": "GI50", "setting": "[6]", "result": "> 100 µM (inactive)"}, {"measurement": "GI50", "setting": "[51]", "result": "68.4 µM (inactive)"}, {"measurement": "GI50", "setting": "[7]", "result": "> 100 µM (inactive)"}, {"measurement": "GI50", "setting": "[8]", "result": "13.3 µM (inactive)"}, {"measurement": "GI50", "setting": "[9]", "result": "91.8 µM (inactive)"}, {"measurement": "GI50", "setting": "[10]", "result": "14.9 µM (inactive)"}, {"measurement": "GI50", "setting": "[11]", "result": "> 100 µM (inactive)"}, {"measurement": "GI50", "setting": "[12]", "result": "> 100 µM (inactive)"}, {"measurement": "GI50", "setting": "[13]", "result": "49.5 µM (inactive)"}, {"measurement": "GI50", "setting": "[14]", "result": "78.7 µM (inactive)"}, {"measurement": "GI50", "setting": "[52]", "result": "> 100 µM (inactive)"}, {"measurement": "GI50", "setting": "[16]", "result": "> 100 µM (inactive)"}, {"measurement": "GI50", "setting": "[17]", "result": "> 100 µM (inactive)"}, {"measurement": "GI50", "setting": "[18]", "result": "49 µM (inactive)"}, {"measurement": "GI50", "setting": "[20]", "result": "40.3 µM (inactive)"}, {"measurement": "GI50", "setting": "[21]", "result": "> 100 µM (inactive)"}, {"measurement": "GI50", "setting": "[22]", "result": "> 100 µM (inactive)"}, {"measurement": "GI50", "setting": "[23]", "result": "> 100 µM (inactive)"}, {"measurement": "GI50", "setting": "[24]", "result": "13.1 µM (inactive)"}, {"measurement": "GI50", "setting": "[26]", "result": "> 100 µM (inactive)"}, {"measurement": "GI50", "setting": "[27]", "result": "> 100 µM (inactive)"}, {"measurement": "GI50", "setting": "[28]", "result": "> 100 µM (inactive)"}, {"measurement": "GI50", "setting": "[29]", "result": "> 100 µM (inactive)"}, {"measurement": "GI50", "setting": "[53]", "result": "> 100 µM (inactive)"}, {"measurement": "GI50", "setting": "[30]", "result": "> 100 µM (inactive)"}, {"measurement": "GI50", "setting": "[31]", "result": "54.1 µM (inactive)"}, {"measurement": "GI50", "setting": "[54]", "result": "88.1 µM (inactive)"}, {"measurement": "GI50", "setting": "[32]", "result": "> 100 µM (inactive)"}, {"measurement": "GI50", "setting": "[33]", "result": "> 100 µM (inactive)"}, {"measurement": "GI50", "setting": "[34]", "result": "> 100 µM (inactive)"}, {"measurement": "GI50", "setting": "[36]", "result": "> 100 µM (inactive)"}, {"measurement": "GI50", "setting": "[37]", "result": "32.9 µM (inactive)"}, {"measurement": "GI50", "setting": "[38]", "result": "> 100 µM (inactive)"}, {"measurement": "GI50", "setting": "[39]", "result": "35.7 µM (inactive)"}, {"measurement": "GI50", "setting": "[40]", "result": "37.5 µM (inactive)"}, {"measurement": "GI50", "setting": "[55]", "result": "48.2 µM (inactive)"}, {"measurement": "GI50", "setting": "[41]", "result": "> 100 µM (inactive)"}, {"measurement": "GI50", "setting": "[42]", "result": "> 100 µM (inactive)"}, {"measurement": "GI50", "setting": "[43]", "result": "> 100", "unit": "µM"}, {"measurement": "GI50", "setting": "[45]", "result": "44.9 µM (inactive)"}, {"measurement": "GI50", "setting": "[46]", "result": "> 100 µM (inactive)"}, {"measurement": "GI50", "setting": "[47]", "result": "33.3 µM (inactive)"}, {"measurement": "GI50", "setting": "[48]", "result": "> 100 µM (inactive)"}, {"measurement": "GI50", "setting": "[49]", "result": "22.8 µM (inactive)"}]}]}
